Results taken from patent publication US4450269A, “Mono-5-substituted-3-chloro-4H-1,2,6-thiadiazin-4-one antifungal agents” (FMC Corporation, priority 1980, dated 1984).
Counter-ions that a name gives are not always drawn.

What was measured:
Uromyces phaseoli = test: whole plant or invertebrate; details: foliar, 24 h, read-out: Percent Disease Control, curative, bean rust
Cladosporium cucumerinum = test: Spore germination test; format: cell-based; details: CC, 48 hours
Outline: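 Compound in acetone mixed into water agar at 40, 10, 2.5 and 1 ppm; plates seeded with spore suspension and incubated 48 hours at 24 °C. Percentage germinated spores counted and converted into a germination rating.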

Pythium ultimum = test: Mycelial growth test; format: cell-based; details: PU; for inhibition at 5 ppm / inhibition at 10 ppm / inhibition at 20 ppm / inhibition at 40 ppm: Globisporangium ultimum, 72 h, read-out: Percent Fungus Growth Inhibition; for Percent Fungus Growth Inhibition: 72 hours

Row | Compound | pest or weed control at 150 ppm (Uromyces phaseoli) [%] | Spore Germination Rating (Cladosporium cucumerinum; 1.0 ppm) | Spore Germination Rating (Cladosporium cucumerinum; 2.5 ppm) | Spore Germination Rating (Cladosporium cucumerinum; 10 ppm) | Spore Germination Rating (Cladosporium cucumerinum; 40 ppm) | inhibition at 5 ppm (Pythium ultimum; 5 ppm) [%] | inhibition at 10 ppm (Pythium ultimum; 10 ppm) [%] | inhibition at 20 ppm (Pythium ultimum; 20 ppm) [%] | inhibition at 40 ppm (Pythium ultimum; 40 ppm) [%] | Percent Fungus Growth Inhibition (Pythium ultimum; 5 ppm) [%] | Percent Fungus Growth Inhibition (Pythium ultimum; 10 ppm) [%] | Percent Fungus Growth Inhibition (Pythium ultimum; 20 ppm) [%] | Percent Fungus Growth Inhibition (Pythium ultimum; 40 ppm) [%] | Percent Fungus Growth Inhibition (Pythium ultimum; 20 ppm, hydrochloride) [%] | Percent Fungus Growth Inhibition (Pythium ultimum; 40 ppm, hydrochloride) [%]
1 | Cc1cc(Oc2nsnc(Cl)c2=O)cc(C)c1Br [Compound 60, 3-[(4-bromo-3,5-dimethyl)-phenoxy]-5-chloro-4H--1,2,6-thiadiazin-4-one] | 0 | 0 (0-10) | 0 (0-10) | 0 (0-10) | 0 (0-10) | 9 | 0 | 0 | 13 |  |  |  |  |  | 
2 | 3-chloro-5-(bromophenoxy)-4H-1,2,6-thiadiazin-4-one [Compound 33] |  | 0 (0-10) | 0 (0-10) | 0 (0-10) | 0 (0-10) |  |  |  |  | 69 | 87 | 96 | 100 |  | 
3 | O=C(Nc1ccccc1)Oc1ccc(Oc2nsnc(Cl)c2=O)cc1 [Compound 37, 3-chloro-5-[4-(phenylaminocarbonyloxy)phenoxy]-4H-1,2,6,-thiadiazin-4-one] | 0 | 0 (0-10) | 1 (10-40) | 0 (0-10) | 0 (0-10) | 100 | 0 | 20 | 100 |  |  |  |  |  | 
4 | O=C(O)c1ccc(Oc2nsnc(Cl)c2=O)cc1 [Compound 50, 3-(4-carboxyphenoxy)-5-chloro-4H--1,2,6-thiadiazin-4-one] | 0 | 3 (60-80) | 3 (60-80) | 3 (60-80) | 2 (40-60) | 20 | 0 | 47 | 100 |  |  |  |  |  | 
5 | O=c1c(Cl)nsnc1Oc1ccc(F)cc1 [Compound 11, 3-chloro-5-(4-fluorophenoxy)-4H--1,2,6-thiadiazin-4-one] | 0 | 0 (0-10) | 0 (0-10) | 0 (0-10) | 0 (0-10) | 0 | 18 | 82 | 100 |  |  |  |  |  | 
6 | CC(=O)c1ccc(Oc2nsnc(Cl)c2=O)cc1 [Compound 47, 3-(4-acetylphenoxy)-5-chloro-4H--1,2,6-thiadiazin-4-one] | 0 | 0 (0-10) | 0 (0-10) | 0 (0-10) | 0 (0-10) | 71 | 100 | 100 | 100 |  |  |  |  |  | 
7 | CC(=O)c1cccc(Oc2nsnc(Cl)c2=O)c1 [Compound 48, 3-(3-acetylphenoxy)-5-chloro-4H--1,2,6-thiadiazin-4-one] | 0 | 0 (0-10) | 0 (0-10) | 0 (0-10) | 0 (0-10) | 78 | 42 | 100 | 100 |  |  |  |  |  | 
8 | O=c1c(Cl)nsnc1Oc1ccc([N+](=O)[O-])cc1 [Compound 9, 3-chloro-5-(4-nitrophenoxy)-4H--1,2,6-thiadiazin-4-one] | 0 | 0 (0-10) | 0 (0-10) | 0 (0-10) | 0 (0-10) | 0 | 80 | 71 | 100 |  |  |  |  |  | 
9 | 3-chloro-5-[methylaminocarbonyloxy)phenoxyl]-4H-1,2,6-thiadiazin-4-one [Compound 36] |  | 4 (80-100) | 3 (60-80) |  | 0 (0-10) |  |  |  |  | 0 | 42 | 100 | 100 |  | 
10 | O=c1c(Cl)nsnc1Oc1cccc(Cl)c1 [Compound 13, 3-chloro-5-(3-chlorophenoxy)-4H--1,2,6-thiadiazin-4-one] | 90 | 2 (40-60) | 0 (0-10) | 0 (0-10) | 0 (0-10) | 31 | 73 | 89 | 100 |  |  |  |  |  | 
11 | Cc1cc(Oc2nsnc(Cl)c2=O)cc(C)c1Cl [Compound 59, 3-chloro-5-[(4-chloro-3,5-dimethyl)phenoxy]-4H--1,2,6-thiadiazin-4-one] | 0 | 1 (10-40) | 0 (0-10) | 0 (0-10) | 0 (0-10) | 0 | 0 | 0 | 29 |  |  |  |  |  | 
12 | Cc1cc(Oc2nsnc(Cl)c2=O)ccc1Cl [Compound 54, 3-chloro-5-(4-chloro-3-methylphenoxy)-4H--1,2,6-thiadiazin-4-one] | 0 | 2 (40-60) | 0 (0-10) | 0 (0-10) | 0 (0-10) | 42 | 60 | 71 | 87 |  |  |  |  |  | 
13 | Cc1cc(Cl)ccc1Oc1nsnc(Cl)c1=O [Compound 55, 3-chloro-5-(4-chloro-2-methylphenoxy)-4H--1,2,6-thiadiazin-4-one] | 0 | 2 (40-60) | 1 (10-40) | 0 (0-10) | 0 (0-10) | 42 | 64 | 33 | 47 |  |  |  |  |  | 
14 | N#Cc1ccc(Oc2nsnc(Cl)c2=O)cc1 [Compound 10, 3-chloro-5-(4-cyanophenoxy)-4H--1,2,6-thiadiazin-4-one] | 0 | 0 (0-10) | 0 (0-10) | 0 (0-10) | 0 (0-10) | 11 | 24 | 42 | 64 |  |  |  |  |  | 
15 | O=c1c(Cl)nsnc1Oc1ccc(Cl)cc1Cl [Compound 17, 3-chloro-5-(2,4-dichlorophenoxy)-4H--1,2,6-thiadiazin-4-one] | 100 | 4 (80-100) | 0 (0-10) | 0 (0-10) | 0 (0-10) | 42 | 80 | 100 | 100 |  |  |  |  |  | 
16 | Cc1cc(Cl)c(Oc2nsnc(Cl)c2=O)cc1C [Compound 58, 3-chloro-5-[(2-chloro-4,5-dimethyl)phenoxy]-4H--1,2,6-thiadiazin-4-one] | 0 | 3 (60-80) | 0 (0-10) | 0 (0-10) | 0 (0-10) | 13 | 24 | 0 | 13 |  |  |  |  |  | 
17 | O=c1c(Cl)nsnc1Oc1cccc2ccccc12 [Compound 32, 3-chloro-5(1-naphthoxy)-4H-1,2,6-thiadiazin-4-one] | 0 | 0 (0-10) | 0 (0-10) | 0 (0-10) | 0 (0-10) | 73 | 73 | 100 | 100 |  |  |  |  |  | 
18 | CC(C)(C)c1ccc(Oc2nsnc(Cl)c2=O)cc1 [Compound 4, 3-chloro-5-(4-tert-butylphnoxy)-4H--1,2,6-thiadiazin-4-one] | 75 | 4 (80-100) | 4 (80-100) | 0 (0-10) | 0 (0-10) | 0 | 20 | 0 | 0 |  |  |  |  |  | 
19 | Cc1ccc(Cl)c(Oc2nsnc(Cl)c2=O)c1 [Compound 56, 3-chloro-5-[(2-chloro-5-methyl)phenoxy]-4H--1,2,6-thiadiazin-4-one] | 100 | 4 (80-100) | 0 (0-10) | 0 (0-10) | 0 (0-10) | 0 | 67 | 100 | 100 |  |  |  |  |  | 
20 | O=c1c(Cl)nsnc1Oc1ccc(Cl)c(Cl)c1 [Compound 16, 3-chloro-5-(3,4-dichlorophenoxy)-4H--1,2,6-thiadiazin-4-one] | 0 | 0 (0-10) | 0 (0-10) | 0 (0-10) | 0 (0-10) | 7 | 11 | 47 | 56 |  |  |  |  |  | 
21 | Nc1ccc(Oc2nsnc(Cl)c2=O)cc1 [Compound 26, 5-(4-aminophenoxy)-3-chloro-4H--1,2,6-thiadiazin-4-one] | 0 | 1 (10-40) | 0 (0-10) | 0 (0-10) | 0 (0-10) | 0 | 0 |  | 100 |  |  | 13 |  |  | 
22 | Cc1ccc(Oc2nsnc(Cl)c2=O)cc1 [Compound 3, 3-chloro-5-(4-methylphenoxy)-4H--1,2,6-thiadiazin-4-one] | 0 | 4 (80-100) | 4 (80-100) | 0 (0-10) | 0 (0-10) | 20 | 100 | 100 | 100 |  |  |  |  |  | 
23 | CC(=O)Nc1ccc(Oc2nsnc(Cl)c2=O)cc1 [Compound 8, 5-(4-acetylaminophenoxy)-3-chloro-4H--1,2,6-thiadiazin-4-one] | 0 | 4 (80-100) | 3 (60-80) | 0 (0-10) | 0 (0-10) | 0 | 100 | 100 | 100 |  |  |  |  |  | 
24 | Nc1ccc(Oc2nsnc(Cl)c2=O)cc1 [Compound 27, 5-(4-aminophenoxy)-3-chloro-4H--1,2,6-thiadiazine-4-one hydrochloride] |  |  |  |  |  |  |  |  |  |  |  |  |  | 0 | 80
